Laboratory results published in patent publication US20090170872A1, “Compounds and Their Pharmaceutical Use” (Orchid Research Laboratories Limited, priority 2005, published 2009).

Columns and labels:
[1] = tested on: TNF-α; experiment: TNF-α production in LPS-stimulated human whole blood (ELISA); assay type: cell-based; conditions: LPS 4 hours, read-out: % TNF-α Inhibitory Activity in (hPBMC)
Experimental: This assay determines the effect of the test compounds on the production of TNF-α in human whole blood. TNF-α assay is carried out as described by Armin Hatzelmann and Christian Schudt (J Pharm Exp Ther 297, 261, 2001). Compounds are tested for their ability to inhibit the activity of TNF-α in human whole blood. The test compounds are pre-incubated for 15 minutes at 37° C. and then stimulated with Lipopolysaccharide (Salmonella abortus equi, 1 µg/ml) for 4 hours at 37° C. in 5% CO2. The levels of TNF-α are estimated using Enzyme linked Immunosorbent assay performed in a 96 well format as per the procedure of the manufacturer (Cayman Chemical, Ann Arbor, USA).

[2] = tested on: IL-6; experiment: IL-6 production in LPS-stimulated human whole blood (ELISA); assay type: cell-based; conditions: LPS 4 hours, read-out: % IL-6 Inhibitory Activity (hPBMC)
Experimental: This assay determines the effect of test compounds on the production of IL-6 from human whole blood. Compounds are tested for their ability to downregulate the production of IL-6 in activated whole blood. The test compounds are pre-incubated for 15 minutes at 37° C. and then stimulated with Lipopolysaccharide (Salmonella abortus equi, 1 µg/ml) for 4 hours at 37° C. in 5% CO2. The levels of IL-6 are estimated using Enzyme linked Immunosorbent assay performed in a 96 well format as per the procedure of the manufacturer. (Cayman Chemical, Ann Arbor, USA).

[3] = target: T1, COX-2 (Homo sapiens, UniProt P35354); experiment: COX-2 enzyme based assay (purified recombinant enzyme, prostaglandin EIA); assay type: biochemical
T1 sequence (P35354 18-604): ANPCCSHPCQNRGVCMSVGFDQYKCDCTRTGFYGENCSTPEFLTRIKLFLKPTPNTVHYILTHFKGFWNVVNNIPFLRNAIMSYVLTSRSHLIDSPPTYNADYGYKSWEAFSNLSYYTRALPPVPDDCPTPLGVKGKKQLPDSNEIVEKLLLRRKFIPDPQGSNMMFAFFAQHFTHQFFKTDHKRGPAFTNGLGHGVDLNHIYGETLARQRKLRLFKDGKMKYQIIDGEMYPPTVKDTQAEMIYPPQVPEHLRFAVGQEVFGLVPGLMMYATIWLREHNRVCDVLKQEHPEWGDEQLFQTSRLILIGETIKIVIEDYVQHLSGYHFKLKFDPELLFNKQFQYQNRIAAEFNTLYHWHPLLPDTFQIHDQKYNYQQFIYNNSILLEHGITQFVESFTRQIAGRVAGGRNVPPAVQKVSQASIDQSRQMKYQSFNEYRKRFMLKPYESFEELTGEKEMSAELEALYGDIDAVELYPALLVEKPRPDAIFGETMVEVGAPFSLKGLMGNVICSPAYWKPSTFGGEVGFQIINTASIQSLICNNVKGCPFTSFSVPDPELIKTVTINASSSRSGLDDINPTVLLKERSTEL
Experimental: (§1) COX-1 and COX-2 enzyme based assays were carried out to check the inhibitory potential of test compounds on the production of prostaglandin by purified recombinant COX-1/COX-2 enzyme (Proc. Nat. Acad. Sci. USA, 88, 2692-2696, 1991; J. Clin. Immunoassay 15, 116-120, 1992) In this assay, the potential of the test compound to inhibit the production of prostaglandin's either by COX-1 or COX-2 from arachidonic acid (substrate) was measured. This was an enzyme based in-vitro assay to evaluate selective COX inhibition with good reproducibility.
(§2) Arachidonic acid was converted to PGH2 (Intermediate product) by COX1/COX-2 in the presence or absence of the test compound. The reaction was carried out at 37° C. and after 2 minutes it was stopped by adding 1M HCl. The intermediate product PGH2 was converted to a stable prostanoid product PGF2α by SnCl2 reduction. The amount of PGF2α produced in the reaction was inversely proportional to the COX inhibitory potential of the test compound. The prostanoid product was quantified via enzyme immunoassay (EIA) using a broadly specific antibody that binds to all the major forms of prostaglandin, using Cayman ELISA kit as per the procedure outlined by the manufacturer (Cayman Chemicals, Ann Arbor, USA).

[4] = tested on: serum TNF-α production; experiment: In-vivo TNF-α inhibition assay (LPS-induced serum TNF-α in mice); conditions: male Swiss albino mice, oral, serum 90 minutes after LPS challenge
Experimental: TNF-α inhibitory activity is assessed by in-vivo inhibition of serum TNF-α production in mice. This method is used to assess the inhibitory actions of compounds, on TNF-[…] production in mouse (Griswold et al J Pharmacol Exp Ther 287,705, 1998, Garcia et al, Histol Histopathol 5(1), 43, 1990, and Victor et al, Physiol Res 52,789, 2003). Male Swiss albino mice with body weights equivalent within each group are selected. The animals are fasted for eighteen hours with free access to water. The control group receives only LPS and the drug treatment group receives LPS and the test compound. At the start of the experiment, the drug is administered orally. Thirty minutes later, the animals are given intraperitoneal injection with lipo-polysaccharide (LPS). Blood samples are withdrawn 90 minutes after the LPS challenge, which is the time point of maximal elevation of serum TNF-α activity. Blood was centrifuged for 10 minutes at 4° C. Serum samples were assayed for TNF-[…] levels using Mouse ELISA kit. The Percent Inhibition of TNF-α production is determined by comparison with LPS-treated and LPS/drug treated groups.

[5] = target: COX-1 (Homo sapiens, UniProt P23219); experiment: COX-1 enzyme based assay (purified recombinant enzyme, prostaglandin EIA); assay type: biochemical
COX-1, sequence (P23219 24-599): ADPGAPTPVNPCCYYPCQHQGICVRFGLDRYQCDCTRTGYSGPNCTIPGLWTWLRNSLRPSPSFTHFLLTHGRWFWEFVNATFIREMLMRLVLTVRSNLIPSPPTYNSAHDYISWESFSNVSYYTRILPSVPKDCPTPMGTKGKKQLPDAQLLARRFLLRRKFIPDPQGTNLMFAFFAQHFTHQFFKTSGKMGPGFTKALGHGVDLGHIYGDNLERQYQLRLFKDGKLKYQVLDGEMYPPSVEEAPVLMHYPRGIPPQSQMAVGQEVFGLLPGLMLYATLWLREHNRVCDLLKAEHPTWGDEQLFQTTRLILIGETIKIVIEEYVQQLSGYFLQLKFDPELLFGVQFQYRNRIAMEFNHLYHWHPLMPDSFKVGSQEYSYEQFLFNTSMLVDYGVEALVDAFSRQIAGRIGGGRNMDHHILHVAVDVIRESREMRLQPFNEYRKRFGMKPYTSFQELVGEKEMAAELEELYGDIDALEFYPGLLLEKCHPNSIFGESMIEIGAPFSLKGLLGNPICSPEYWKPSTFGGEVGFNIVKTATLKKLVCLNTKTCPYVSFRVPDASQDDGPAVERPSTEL
Experimental: as §1, §2

| melting point | inhibition at 1 µM [3] | inhibition at 10 µM [3] | inhibition at 10 µM [5] | SMILES | inhibition at 1 µM [1] | inhibition at 10 µM [1] | inhibition at 1 µM [2] | inhibition at 10 µM [2] | % TNF-α inhibition in in vivo sepsis in mice [4] |
| --- | --- | --- | --- | --- | --- | --- | --- | --- | --- |
| 178 to 180 °C |  |  |  | Cc1nccn1CC1CCc2c(c3ccccc3n2C)/C1=N/OC(=O)c1ccc(C#N)cc1 (stereo not drawn) [Example 44, (4E)-9-methyl-3-[(2-methyl-1H-imidazol-1-yl)methyl]-1,2,3,9-tetrahydro-4H-carbazol-4-one O-4-cyanobenzoyloxime] | 23.5% | 45.6% | 13.2% | 22.7% |  |
|  | 23% | 23.6% |  | Cc1nccn1CC1CCc2c(c3ccccc3n2C)/C1=N/Oc1ccc(C(F)(F)F)cn1 (stereo not drawn) [Example 21, (4E)-9-methyl-3-[(2-methyl-1H-imidazol-1-yl)methyl]-1,2,3,9-tetrahydro-4H-carbazol-4-one O-[5-trifluoromethyl-pyridin-2-yl]oxime] |  |  |  |  |  |
| 108 to 112 °C |  |  |  | Cc1nccn1CC1CCc2c(c3ccccc3n2C)/C1=N/OC(=O)c1ccccc1Br (stereo not drawn) [Example 39, (4E)-9-methyl-3-[(2-methyl-1H-imidazol-1-yl)methyl]-1,2,3,9-tetrahydro-4H-carbazol-4-one O-2-bromobenzoyloxime] | 26.1% | 45.8% | 28.5% | 19.1% |  |
| 160 to 166 °C |  |  |  | Cc1nccn1CC1CCc2c(c3ccccc3n2C)/C1=N/OC(=O)c1cccc(C#N)c1 (stereo not drawn) [Example 65, (4E)-9-methyl-3-[(2-methyl-1H-imidazol-1-yl)methyl]-1,2,3,9-tetrahydro-4H-carbazol-4-one O-3-cyanobenzoyloxime] |  |  | 13.7% | 30.6% |  |
| 98 to 106 °C |  |  |  | Cc1nccn1CC1CCc2c(c3ccccc3n2C)/C1=N/OC(=O)C1CCCCC1 (stereo not drawn) [Example 42, (4E)-9-methyl-3-[(2-methyl-1H-imidazol-1-yl)methyl]-1,2,3,9-tetrahydro-4H-carbazol-4-one O-cyclohexanoyloxime] |  |  | 7.96% | 18.5% |  |
| 175 to 178 °C |  |  |  | CCc1ccc(C(=O)O/N=C2/c3c(n(C)c4ccccc34)CCC2Cn2ccnc2C)cc1 (stereo not drawn) [Example 41, (4E)-9-methyl-3-[(2-methyl-1H-imidazol-1-yl)methyl]-1,2,3,9-tetrahydro-4H-carbazol-4-one O-4-ethylbenzoyloxime] |  |  | 7.63% | 3.09% |  |
|  | 41.5% | 42.7% |  | Cc1nccn1CC1CCc2c(c3ccccc3n2C)/C1=N/Oc1ccc(Br)cn1 (stereo not drawn) [Example 17, (4E)-9-methyl-3-[(2-methyl-1H-imidazol-1-yl)methyl]-1,2,3,9-tetrahydro-4H-carbazol-4-one O-[5-bromo-pyridin-2-yl]oxime] |  |  |  |  | 82.69% |
| 111 to 116 °C |  |  |  | Cc1nccn1CC1CCc2c(c3ccccc3n2C)/C1=N/OC(=O)c1ccccc1Cl (stereo not drawn) [Example 37, (4E)-9-methyl-3-[(2-methyl-1H-imidazol-1-yl)methyl]-1,2,3,9-tetrahydro-4H-carbazol-4-one O-2-chlorobenzoyloxime] | 14.5% | 42.1% | 21.1% | 32.2% |  |
|  | 32.7% | 34.9% | 39.1% | COc1cc(O/N=C2/c3c(n(C)c4ccccc34)CCC2Cn2ccnc2C)nc(OC)n1 (stereo not drawn) [Example 20, (4E)-9-methyl-3-[(2-methyl-1H-imidazol-1-yl)methyl]-1,2,3,9-tetrahydro-4H-carbazol-4-one O-(2,6-dimethoxypyrimidin-4-yl)oxime] |  |  |  |  |  |
|  | 42% | 36.5% | 16.4% | Cc1nccn1CC1CCc2c(c3ccccc3n2C)/C1=N/OC(=O)c1ccc(Br)s1 (stereo not drawn) [Example 62, (4E)-9-methyl-3-[(2-methyl-1H-imidazol-1-yl)methyl]-1,2,3,9-tetrahydro-4H-carbazol-4-one O-[(5-bromothien-2-yl)carbonyl]oxime] |  |  |  |  | 86.10% |
| 170 to 175 °C |  |  |  | Cc1nccn1CC1CCc2c(c3ccccc3n2C)/C1=N/OC(=O)c1cccc(Cl)n1 (stereo not drawn) [Example 40, (4E)-9-methyl-3-[(2-methyl-1H-imidazol-1-yl)methyl]-1,2,3,9-tetrahydro-4H-carbazol-4-one O-6-chloropyridinoyloxime] |  |  | 20.5% | 21.3% |  |
